According to patent US11980188B2, “Spiro cyclohexanedione derivates as herbicides” (SYNGENTA PARTICIPATIONS AG, priority 2018, dated 2024):

Legend:
Experiment in all cases: Glasshouse herbicide test, pre- and post-emergence, percentage damage
Format in all cases: in vivo
[1] = system: Alopecurus myosuroides (ALOMY); settings: 250 g/h, evaluated after 13 days, percentage damage on five point scale; for ALOMY POST: post-emergence; for ALOMY PRE: pre-emergence
Protocol: (§1) Seeds of a variety of test species are sown in standard soil in pots (Lolium perenne (LOLPE), Setaria faberi (SETFA), Alopecurus myosuroides (ALOMY), Echinochloa crus-galli (ECHCG), Avena fatua (AVEFA)). After cultivation for one day (pre-emergence) or after 8 days cultivation (post-emergence) under controlled conditions in a glasshouse (at 24/16° C., day/night; 14 hours light; 65% humidity), the plants are sprayed with an aqueous spray solution derived from the formulation of the technical active ingredient in acetone/water (50:50) solution containing 0.5% Tween 20 (polyoxyethelyene sorbitan monolaurate, CAS RN 9005-64-5). Compounds are applied at […]. The test plants are then grown in a glasshouse under controlled conditions in a glasshouse (at 24/16° C., day/night; 14 hours light; 65% humidity) and watered twice daily. After 13 days for pre and post-emergence, the test is evaluated for the percentage damage caused to the plant. The biological activities are shown in the following table on a five point scale (5=80-100%; 4=60-79%; 3=40-59%; 2=20-39%; 1=0-19%).

Setaria faberi (SETFA) = settings: 250 g/h, evaluated after 13 days, percentage damage on five point scale; for SETFA POST: post-emergence; for SETFA PRE: pre-emergence
Protocol: as §1

Avena fatua (AVEFA) = settings: 250 g/h, evaluated after 13 days, percentage damage on five point scale; for AVEFA POST: post-emergence; for AVEFA PRE: pre-emergence
Protocol: as §1

[2] = system: Echinochloa crus-galli (ECHCG); settings: 250 g/h, evaluated after 13 days, percentage damage on five point scale; for ECHCG POST: post-emergence; for ECHCG PRE: pre-emergence
Protocol: as §1

Lolium perenne (LOLPE) = settings: 250 g/h, evaluated after 13 days, percentage damage on five point scale; for LOLPE POST: post-emergence; for LOLPE PRE: pre-emergence
Protocol: as §1

| Compound | ALOMY POST [1] | ALOMY PRE [1] | SETFA POST (Setaria faberi (SETFA)) | SETFA PRE (Setaria faberi (SETFA)) | AVEFA POST (Avena fatua (AVEFA)) | AVEFA PRE (Avena fatua (AVEFA)) | ECHCG POST [2] | ECHCG PRE [2] | LOLPE POST (Lolium perenne (LOLPE)) | LOLPE PRE (Lolium perenne (LOLPE)) |
| --- | --- | --- | --- | --- | --- | --- | --- | --- | --- | --- |
| COc1cc(-c2ccc(F)cc2)cc(C)c1C1C(=O)CC2(CCN(C(C)=O)CC2)CC1=O [Compound A21] | 5 (5=80-100%) | 5 (5=80-100%) | 5 (5=80-100%) | 5 (5=80-100%) | 5 (5=80-100%) | 5 (5=80-100%) | 5 (5=80-100%) | 5 (5=80-100%) | 5 (5=80-100%) | 5 (5=80-100%) |
| CCS(=O)(=O)N1CCC2(CC1)CC(=O)C(c1c(C)cc(-c3ccc(C#N)cn3)cc1C)C(=O)C2 [Compound A22] | 5 (5=80-100%) | 5 (5=80-100%) | 5 (5=80-100%) | 5 (5=80-100%) | 5 (5=80-100%) | 5 (5=80-100%) |  | 5 (5=80-100%) | 5 (5=80-100%) | 5 (5=80-100%) |
| Cc1cc(-c2ccc(C#N)cn2)cc(C)c1C1C(=O)CC2(CCN(C(=O)c3ccccc3)CC2)CC1=O [Compound A23] | 5 (5=80-100%) | 5 (5=80-100%) | 5 (5=80-100%) | 5 (5=80-100%) | 5 (5=80-100%) | 5 (5=80-100%) | 5 (5=80-100%) | 5 (5=80-100%) | 5 (5=80-100%) | 5 (5=80-100%) |
| Cc1cc(-c2ccc(C#N)cn2)cc(C)c1C1C(=O)CC2(CCN(C(=O)c3ccccn3)CC2)CC1=O [Compound A24] | 5 (5=80-100%) | 5 (5=80-100%) | 5 (5=80-100%) | 5 (5=80-100%) | 5 (5=80-100%) | 5 (5=80-100%) | 5 (5=80-100%) | 5 (5=80-100%) | 5 (5=80-100%) | 5 (5=80-100%) |
| COCC(=O)N1CCC2(CC1)CC(=O)C(c1c(C)cc(-c3ccc(C#N)cn3)cc1C)C(=O)C2 [Compound A25] | 5 (5=80-100%) | 5 (5=80-100%) | 5 (5=80-100%) | 5 (5=80-100%) | 5 (5=80-100%) | 5 (5=80-100%) | 5 (5=80-100%) | 5 (5=80-100%) | 5 (5=80-100%) | 5 (5=80-100%) |
| Cc1cc(-c2ccc(C#N)cn2)cc(C)c1C1C(=O)CC2(CCN(C(=O)NC(C)(C)C)CC2)CC1=O [Compound A26] | 5 (5=80-100%) | 5 (5=80-100%) | 5 (5=80-100%) | 5 (5=80-100%) | 2 (2=20-39%) | 4 (4=60-79%) |  | 5 (5=80-100%) | 5 (5=80-100%) | 5 (5=80-100%) |
| Cc1cc(-c2ccc(C#N)cn2)cc(C)c1C1C(=O)CC2(CCN(C(=O)NC(=O)C(C)(C)C)CC2)CC1=O [Compound A27] | 5 (5=80-100%) | 4 (4=60-79%) | 5 (5=80-100%) | 5 (5=80-100%) | 1 (1=0-19%) | 2 (2=20-39%) |  | 5 (5=80-100%) | 5 (5=80-100%) | 4 (4=60-79%) |
| Cc1cc(-c2ccc(C#N)cn2)cc(C)c1C1C(=O)CC2(CCN(C(=O)C3CC3)CC2)CC1=O [Compound A28] | 5 (5=80-100%) | 5 (5=80-100%) | 5 (5=80-100%) | 5 (5=80-100%) | 5 (5=80-100%) | 5 (5=80-100%) | 5 (5=80-100%) | 5 (5=80-100%) | 5 (5=80-100%) | 5 (5=80-100%) |
| Cc1cc(-c2ccc(C#N)cn2)cc(C)c1C1C(=O)CC2(CCN(C(=O)C(F)F)CC2)CC1=O [Compound A29] | 5 (5=80-100%) |  | 5 (5=80-100%) | 5 (5=80-100%) | 5 (5=80-100%) | 5 (5=80-100%) | 4 (4=60-79%) | 1 (1=0-19%) | 5 (5=80-100%) | 1 (1=0-19%) |
